Test results as given in patent US11059815B2, “Synthesis of small molecule histone deacetylase 6 degraders, compounds formed thereby, and pharmaceutical compositions containing them” (Wisconsin Alumni Research Foundation, priority 2018, dated 2021).

Legend:
acetylated tubulin = test: Western blot of acetylated tubulin in MM1S cells; type: cell-based, human; conditions: 100 nM
Text: FIGS. 12A, 12B, and 12C are a series of western blots showing that degrader 12d selectively promotes HDAC6 degradation in MM1S cells.
To further examine the selectivity of the new generation of HDAC6 degraders, compound 12d was compared to SAHA, Next-A, degrader 1 and pan-inhibitor 2 for change of acetylated a-tubulin and acetylated histone H3.
When the cells reached 90% confluence, they were harvested and plated 1×10^6 cells per well in 6-well plate. After overnight seeding, the cells were treated with a solution of compounds or vehicle in culture medium. The culture medium was removed after treatment and then washed twice with cold PBS. To obtain whole cell lysate, all cells were treated with RIPA lysis buffer (25 mM Tris, pH 7-8, 150 mM NaCl, 0.1% SDS, 0.5% sodium deoxycholate, 1% Triton X-100, protease inhibitor cocktail (Roche, 1 tablet per 10 mL) and 1 mM PMSF) on ice for 10 minutes. Supernatant was collected after spinning down at 16,000 g at 4° C. for 15 minutes. Protein concentration was measured by using the Pierce BCA protein assay (Thermo Fisher Scientific). About 10-40 μg of total protein was mixed with 4× Laemmli Loading Dye (250 mM Tris, pH 6.8, 40% glycerol, 5% SDS, 0.005% bromophenol blue, 4% BME) and heated at 95-100° C. for 5 minutes. The heated sample was then subjected to 7.5-12% SDS-PAGE and transferred to PVDF membrane (Bio-Rad,). The membrane was blocked in 5% non-fat milk (Bio-rad) in TBS-T washing buffer (137 mM NaCl, 20 mM Tris, 0.1% Tween) and then incubated with primary antibodies at 4° C. overnight. […] The Immunoblot was generated by ChemiDoc MP Imaging Systems (Bio-Rad) and analyzed by Image J software (only available for download online at https://imagej.net/Downloads). […]
The activity of all eleven “n+4” VHL-based potential degraders to suppress HDAC6 expression was tested at 100 nM and compared to CRBN degrader 2 in MM1S cells. The resulting cells were analyzed for HDAC6 expression by in-cell ELISA (FIG. 15). […]

HDAC6 = target: T1, HDAC6 (Homo sapiens, UniProt Q9UBN7); test: Immunoblot of HDAC6 degradation in MM.1S cells (second generation degraders); type: cell-based; conditions: 6 nM
T1 construct: endogenous in cells; host or cells: MM1S (ATCC CRL-2974)
T1 sequence (Q9UBN7 1-1215): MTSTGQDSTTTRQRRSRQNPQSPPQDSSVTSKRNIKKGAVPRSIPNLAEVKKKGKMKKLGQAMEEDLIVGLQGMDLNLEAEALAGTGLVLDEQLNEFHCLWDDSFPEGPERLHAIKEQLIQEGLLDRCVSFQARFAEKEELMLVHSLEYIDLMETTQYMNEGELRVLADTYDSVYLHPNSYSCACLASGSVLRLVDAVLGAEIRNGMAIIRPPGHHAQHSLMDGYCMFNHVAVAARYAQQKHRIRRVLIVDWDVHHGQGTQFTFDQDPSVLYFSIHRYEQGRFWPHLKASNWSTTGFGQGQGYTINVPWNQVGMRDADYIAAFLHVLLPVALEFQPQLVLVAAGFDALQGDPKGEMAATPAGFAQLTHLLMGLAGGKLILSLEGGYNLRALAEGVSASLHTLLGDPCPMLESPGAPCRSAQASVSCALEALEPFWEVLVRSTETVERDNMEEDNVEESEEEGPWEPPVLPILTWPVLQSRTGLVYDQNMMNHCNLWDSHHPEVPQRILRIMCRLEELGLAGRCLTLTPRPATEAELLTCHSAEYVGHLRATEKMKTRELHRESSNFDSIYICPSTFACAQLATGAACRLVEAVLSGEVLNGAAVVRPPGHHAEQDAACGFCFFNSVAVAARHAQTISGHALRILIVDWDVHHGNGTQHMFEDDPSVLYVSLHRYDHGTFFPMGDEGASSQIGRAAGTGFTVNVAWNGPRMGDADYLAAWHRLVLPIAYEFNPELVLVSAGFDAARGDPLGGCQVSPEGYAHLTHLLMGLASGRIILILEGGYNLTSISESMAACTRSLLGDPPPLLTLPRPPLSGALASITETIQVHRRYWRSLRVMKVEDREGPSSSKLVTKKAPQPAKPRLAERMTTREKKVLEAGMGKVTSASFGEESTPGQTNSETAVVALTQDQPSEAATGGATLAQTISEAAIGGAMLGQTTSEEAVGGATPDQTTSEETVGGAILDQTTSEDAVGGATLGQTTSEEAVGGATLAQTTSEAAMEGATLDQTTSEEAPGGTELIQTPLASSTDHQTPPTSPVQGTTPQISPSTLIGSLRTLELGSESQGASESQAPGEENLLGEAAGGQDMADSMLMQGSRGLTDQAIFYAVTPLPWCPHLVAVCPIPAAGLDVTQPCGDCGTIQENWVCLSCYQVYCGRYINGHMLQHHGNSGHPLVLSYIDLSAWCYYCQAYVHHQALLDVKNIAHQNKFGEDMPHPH
Description: FIG. 6A: Immunoblot showing degradation activity of 18x, 18a, and 18b against HDAC1, HDAC2, HDAC4, and HDAC6 (with β-actin as a control) at serial dilutions of 10 μM, 1 μM, and 100 nM.
FIG. 6B: Immunoblot showing degradation activity of 20a, 20b, 20c, 18c, 18a, and 18b against HDAC4 and HDAC6 (with α-tubulin as a control) at dilutions of 5 nM and 1 nM.
FIG. 6C: Immunoblot showing degradation activity of 18b and 9C against HDAC1, HDAC2, HDAC4, HDAC6, and HDAC8 (with β-actin as a control) at dilutions of 6, 19, 56, 167, and 500 nM.
Some of these HDAC6 degraders could degrade HDAC6 selectively at low nM concentrations in MM.
When the cells reached 90% confluence, they were harvested and plated 1×10^6 cells per well in 6-well plate. After overnight seeding, the cells were treated with a solution of compounds or vehicle in culture medium. The culture medium was removed after treatment and then washed twice with cold PBS. […] Protein concentration was measured by using the Pierce BCA protein assay (Thermo Fisher Scientific). […] The Immunoblot was generated by ChemiDoc MP Imaging Systems (Bio-Rad) and analyzed by Image J software (only available for download online at https://imagej.net/Downloads). […]

HDAC6 depletion (HDAC6) | SMILES | change of acetylated tubulin (acetylated tubulin)
 | CCCCN(Cc1ccc(C(=O)NO)cc1)C(=O)Nc1ccc(OCCCCCn2cc(CNc3cccc4c3C(=O)N(C3CCC(=O)NC3=O)C4=O)nn2)cc1 (stereo not drawn) [Compound 12d, 4-((1-butyl-3-(4-((5-(4-(((2-(2,6-dioxopiperidin-3-yl)-1,3-dioxoisoindolin-4-yl)amino)methyl)-1H-1,2,3-triazol-1-yl)pentyl)oxy)phenyl)ureido)methyl)-N-hydroxybenzamide] | increased
 | CCCCN(Cc1ccc(C(=O)NO)cc1)C(=O)Nc1ccccc1 [Next-A, 4-[[butyl[(phenylamino)carbonyl]amino]methyl]-N-hydroxy-benzamide, reference compound] | didn't
completely depleted | CCCCN(Cc1ccc(C(=O)NO)cc1)C(=O)Nc1ccc(OCCCn2cc(CNc3ccc4c(c3)C(=O)N(C3CCC(=O)NC3=O)C4=O)nn2)cc1 (stereo not drawn) [Compound 12m, 4-((1-butyl-3-(4-(3-(4-(((2-(2,6-dioxopiperidin-3-yl)-1,3-dioxoisoindolin-5-yl)amino)methyl)-1H-1,2,3-triazol-1-yl)propoxy)phenyl)ureido)methyl)-N-hydroxybenzamide] | 
